Test results: US4968671A, “Therapeutic agents for ischemic heart diseases” (Yamanouchi Pharmaceutical Co., Ltd., priority 1987, dated 1990)

What was measured:
dogs = assay: inhibitory action on ventricular extra systole on reperfusion of the occluded coronary artery in anesthetized open-chest dogs; format: in vivo; settings: 60 min coronary occlusion then 20 min reperfusion, 300 mg/kg i.v. + 10 mg/kg/min i.v., mean ± standard deviation, P < 0.05 vs control group (35.9 ± 10.2)
Procedure: The inhibitory action of glutathione monoisopropyl ester on ventricular extra systole occurred when the occluded coronary artery was reperfused in dogs was tested with the following method.
Measurement was carried out by partially modifying Gibsons' method (J. Cardiovasc. Pharmacol., 5, 517-524, 1983). Dogs (Mongrel, female and male, 9-18 kg) were anesthetized with pentobarbital, the chest was opened under artificial respiration. And then the left coronary artery anterior descending segmental branch was occluded for 60 minutes. Thereafter, a reperfusion was carried out for 20 minutes and then blood pressure and heart rate as well as the heart surface electrocardiogram were measured.
The glutathione monoisopropyl ester (GE) was intravenously administered in a single dose of 300 mg/kg 30 minutes after the coronary artery occlusion and continuous injection was carried out in the amount of 10 mg/kg/min, i.v., until the completion of this test from 40 minutes after the coronary artery occlusion. The effect of an agent was evaluated by the number of the ventricular extra systole for a minute, which had been occured during the time period of reperfusion.

mice = assay: acute toxicity (LD50), intraperitoneal injection to mice; format: in vivo

CC(C)OC(=O)CNC(=O)[C@H](CS)NC(=O)CC[C@H](N)C(=O)O [GE, isopropyl r-L-glutamyl-L-cysteinyl glycinate]
Number of ventricular extra systole (dogs): 10.0 ± 5.6 counts/min
acute toxicity (LD50) (mice): approximately 5.3 g/kg
